Experimental data as given in article PMC7219108, “Pisum sativum Defensin 1 Eradicates Mouse Metastatic Lung Nodules from B16F10 Melanoma Cells” (International Journal of Molecular Sciences, 2020).

Key:
[1] = system: A-431 (human epidermoid carcinoma) cells; assay: MTT cell viability, A-431 tumor cells; format: cell-based; conditions: 24 h, p < 0.001
[2] = system: R8 (rat lymphocyte) cells; assay: LDH release cell viability, healthy R8 cells; format: cell-based; conditions: 30 µM, 3 h (6 µM not tested)
[3] = system: B16F10 cells; assay: Mitochondrial staining (MitoTracker Red CMXRos), B16F10 cells; format: cell-based, murine; conditions: 50 µM
Procedure: Figure 2 Psd1 promotes B16F10 live cell membrane permeabilization as monitored by SYTOX Green fluorescence. (A) Psd1 untreated and hydrogen peroxide-treated B16F10 cells. (B) A total of 1.5 × 10^4 B16F10 cells were incubated with 3 or 50 µM Psd1 for 30 min. (C) 1.5 × 10^4 B16F10 cells were incubated with 50 µM Psd1 for 1 h. All experiments were performed at 37 °C. Nucleus staining is shown in green (SYTOXGreen), and mitochondria are shown in red (MitoTracker Red CMXRos). Images are shown at 20× magnification. […] (E) Psd1 induces apoptosis in B16F10 cells. B16F10 cells were treated with 50 µM Psd1 for 24 h and labeled with propidium iodide, and the DNA content was analyzed by flow cytometry for the sub-G0/G1 profile. […]
Figure 3 Fluorescein isothiocyanate (FITC)-Psd1 was localized in the B16F10 live cell nucleus. […] (C) The mean fluorescence intensity (MIF) of MitoTracker and FITC-Psd1 labeled cells measured over time. […]
Images were obtained in the X, Y, and Z planes of the image, giving the image a 3-dimensional depth (Z-stack) at 100× magnification with a Zeiss Cell Observer Yokogawa Spinning Disk confocal microscope (Cell Observed SD, Carl-Zeiss, Oberkochen, Germany) located in the Microscopia Óptica de Luz Gustavo de Oliveira Castro (Plamol) platform in Universidade Federal do Rio de Janeiro. […] On average, thirty cells per field were analyzed in fourteen fields by experiments. […]

## Psd1: 46-amino acid residue plant defensin isolated from pea seeds, expressed in Pichia pastoris (PDB 1JKZ) (KTCEHLADTYRGVCFTNASCDDHCKNKAHLISGTCHNWKCFCTQNC)
[1]; 12.5 µM
  A-431 growth, result in words (MTT): decreased growth
[1]; 50 µM
  Maximum reduction of A-431 growth (MTT): 20%
[2]
  R8 cell viability (LDH release): no alteration in cell viability
[3]; 30 min
  Mitochondria red marker (MitoTracker): lower mitochondria red marker
[3]; 1 h, probably superposition of SYTOXGreen and MitoTracker signals
  Mitochondria red fluorescence (MitoTracker): brighter red fluorescence signal
